Results published in patent publication US7838020B2, “Cosmetic or dermatological composition comprising an association between a compound of the N-acylaminoamide family and at least one matrix metalloproteinase inhibitor” (L'Oreal, priority 2001, dated 2010).

Experiments:
[1] = target: T1, human leukocyte elastase (ELH) (Homo sapiens, UniProt P08246); experiment: ex vivo activity on surviving human skin fragments treated with ELH, 10 days culture (Example 5); type: cell-based; details: 0.5 μg ELH per ml; 5 μl of 0.2% compound in ethanol every two days; 10 days at 37° C.; control 7.4%, ELH alone 5.1%
T1 sequence (P08246 30-267): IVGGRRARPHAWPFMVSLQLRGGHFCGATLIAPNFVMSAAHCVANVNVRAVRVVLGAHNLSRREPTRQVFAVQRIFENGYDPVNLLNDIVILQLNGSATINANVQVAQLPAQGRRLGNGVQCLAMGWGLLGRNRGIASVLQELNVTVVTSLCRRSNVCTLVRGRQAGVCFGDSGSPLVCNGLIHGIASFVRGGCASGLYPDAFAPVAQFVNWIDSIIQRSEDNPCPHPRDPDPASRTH
Procedure: (§1) The ex vivo activity of example 2 compound has been evaluated on surviving human skins treated by a human leukocyte elastase (ELH).
The test is performed the following way:
Fragments of normal human skin from three different donors are deposited in inserts positioned in culture wells. Culture medium added with antibiotics is added in the bottom of the wells. A pass is performed through slow diffusion between the two compartments via a porous membrane (pore size: 12 μm).
The culture medium is renewed every three days.
On the skin fragments, optionally 0.5 μg ELH per ml culture medium are added.
5 μl of the compound to be tested are also added every two days, previously put in solution at 0.2% by weight in ethanol.
The skins are kept surviving for 10 days at 37° C.
(§2) The elastic fibres are coloured in blue using catechin (+) and quantified morphometrically using a computer assisted image analysis. The average derma surface percentage occupied by elastic fibres is evaluated this way.

[2] = target: T1, human leukocyte elastase (ELH); experiment: ex vivo activity on fresh human skin cuts treated with ELH for 2 hours (Example 4); type: cell-based; details: 20° C.
Procedure: as §1
The test is performed the following way.
Fresh human skin cuts from two different donors are treated for 2 hours, at 20° C., by 20 μl of a buffer solution (pH 7.4) optionally comprising 10 μg/ml ELH and optionally 0.1% of the compound to be tested, optionally previously put in solution in ethanol.
as §2

[3] = target: T1, human leukocyte elastase (ELH); experiment: in vitro anti-elastasic activity, Me-OSAAPV-p-NA substrate, spectrophotometry; type: biochemical; details: even in a small amount (0.01% to 0.2%)
Procedure: The anti-elastasic activity of compounds according to the invention is determined in vitro compared to the human leukocyte elastase (ELH).
The test is performed in the following way:
A Me-OSAAPV-p-NA (méthyl-O-succinate alanine alanine proline valine-p-nitroaniline) substrate, onto which ELH (40 milli-units per ml) and 0.1% of the compound to be tested are applied, is left for incubating at 37° C. for 60 minutes.
Thereafter, the % inhibition of the control elastase activity is determined by spectrophotometry.

- % Surface occupied by elastic fibres ([2]; Skin 1, 10 μg/ml ELH + 0.1% compound, control 12.7%, ELH alone 4.85%): 13.95%
- % Surface occupied by elastic fibres ([2]; Skin 2, 10 μg/ml ELH + 0.1% compound, control 15.25%, ELH alone 6.85%): 11.85%
- inhibition of the elastase activity (in words) [3]: strong inhibition
Structure (SMILES): CC(=O)N(c1cccc(C(F)(F)F)c1)C(C(=O)NCC(=O)O)C(C)C (stereo not shown) [Compound A, {2-[acetyl-(3-trifluoromethyl-phenyl)-amino]-3-méthyl-butyryl-amino}acetic acid]
- % Surface occupied by elastic fibres [1]: 7.1%
